Measurements reported in PubChem BioAssay AID1259407 (Chemical Carcinogenesis Research Information System (CCRIS), 2018).
The source made the active and inactive calls. No rule for the calls is given here.

Test system: CCRIS mutagenicity, Ames/micronucleus/aberration tests
Test: CCRIS mutagenicity studies
[1] = Test System: AMES SALMONELLA TYPHIMURIUM, Strain/Indicator: TA98, Metabolic Activation: NONE, Method: STANDARD PLATE
[2] = Test System: AMES SALMONELLA TYPHIMURIUM, Strain/Indicator: TA100, Metabolic Activation: NONE, Method: STANDARD PLATE

Q: For `O=C(O)c1ccc([N+](=O)[O-])cc1[N+](=O)[O-]`, which mutagenic call (End Point: In vitro chromosomal aberrations, Test System: V79 Chinese hamster fibroblasts, Metabolic Activation: None) is on record?
A: Its mutagenic call is “active; positive (structural changes)”.

Q: And the mutagenic call (End Point: In vitro micronucleus, Test System: HepG2 human hepatoma cells, Metabolic Activation: None)?
A: Its mutagenic call is “active; positive”.

Q: And the mutagenic call (Test System: AMES SALMONELLA TYPHIMURIUM, Strain/Indicator: TA98, Metabolic Activation: RAT, LIVER, S-9, AROCLOR, Method: PREINCUBATION)?
A: Its mutagenic call is “active; positive”.

Q: What about the mutagenic call (Test System: AMES SALMONELLA TYPHIMURIUM, Strain/Indicator: TA98, Metabolic Activation: RAT, LIVER, S-9, KANECHLOR 500, Method: PREINCUBATION) of the same molecule?
A: The mutagenic call was “inactive; negative”.

Q: And the mutagenic call (Test System: AMES SALMONELLA TYPHIMURIUM, Strain/Indicator: TA100, Metabolic Activation: RAT, LIVER, S-9, KANECHLOR 500, Method: PREINCUBATION)?
A: Its mutagenic call is “inactive; negative”.

Q: And the mutagenic call (Test System: Ames Salmonella typhimurium, Strain/Indicator: TA98, Metabolic Activation: None, Method: Standard plate)?
A: Its mutagenic call is “active; positive”.

Q: And the mutagenic call (Test System: Ames Salmonella typhimurium, Strain/Indicator: TA98, Metabolic Activation: Rat, Liver, S-9, Method: Standard plate)?
A: The mutagenic call was “active; positive”.

Q: And the mutagenic call (Test System: Ames Salmonella typhimurium, Strain/Indicator: TA98NR, Metabolic Activation: None, Method: Standard plate)?
A: Its mutagenic call is “active; positive, ta98nr is the nitroreductase-deficient derivative of ta98”.

Q: What about the mutagenic call (Test System: Ames Salmonella typhimurium, Strain/Indicator: TA100, Metabolic Activation: None, Method: Standard plate) of the same molecule?
A: The mutagenic call was “inactive; negative”.

Q: And the mutagenic call (Test System: Ames Salmonella typhimurium, Strain/Indicator: TA100, Metabolic Activation: Rat, Liver, S-9, Method: Standard plate)?
A: Its mutagenic call is “inactive; negative”.

Q: `Cc1cccc(NC(=O)c2csc([N+](=O)[O-])c2)c1` was tested. Which mutagenic call [1] did it give?
A: Its mutagenic call is “active; positive”.

Q: And the mutagenic call [2]?
A: The mutagenic call was “active; positive”.

Q: How did the mutagenic call [1] turn out when `BrCc1ccc2cccc3c2c1-c1ccccc1-3` was run?
A: The mutagenic call was “active; positive”.

Q: And the mutagenic call [2]?
A: Its mutagenic call is “active; positive”.

Q: Which results are given for `Cc1cc2c(c(O)c1O)C(=O)c1c(O)cc(O)cc1C2=O`?
A: mutagenic call [1]: inactive; negative; mutagenic call [2]: inactive; negative; mutagenic call (Test System: AMES SALMONELLA TYPHIMURIUM, Strain/Indicator: TA1535, Metabolic Activation: NONE, Method: STANDARD PLATE): inactive; negative; mutagenic call (Test System: AMES SALMONELLA TYPHIMURIUM, Strain/Indicator: TA1537, Metabolic Activation: NONE, Method: STANDARD PLATE): active; positive; mutagenic call (Test System: AMES SALMONELLA TYPHIMURIUM, Strain/Indicator: TA1537, Metabolic Activation: RAT, LIVER, S-9, PCB, Method: STANDARD PLATE): active; positive
